Target: interaction between PD-1 and PD-L1 (Homo sapiens (Human), UniProt Q9NZQ7)
Assay: Cisbio PD-1/PD-L1 binding assay kit (HTRF)
Settings: read-out: IC50, inhibitory activity at molecular level on the interaction between PD-1 and PD-L1
From the text: 1. In vitro activity evaluation: Cisbio PD-1/PD-L1 binding assay kit was applied for the detection method of in vitro enzymology level.
1) Principle: PD-1 protein is with HIS tag, and PD-1 ligand PD-L1 is with hFc tag. Eu labeled anti-hFc antibody and XL665 labeled anti-HIS antibody are combined with the above two label proteins respectively. After laser excitation, energy can be transferred from donor Eu to receptor XL665, allowing XL665 to glow.
2) Experimental method: The specific method can be referred to Cisbio's PD-1/PD-L1 Kit (item 64CUS000C-2). Reagents should be dispensed in the following order. For 384-well white ELISA plate, 2 μl of diluent or target compound diluted with diluent was added to each well, and then 4 μl of PD-1 protein and 4 μl of PD-L1 protein were added per well, incubated for 15 min at room temperature; and 10 μl of a mixture of anti-Tag1-Eu3^+ and anti-Tag2-XL665 was added per well and incubated for 1 h to 4 h at room temperature and the fluorescence signals at 665 nm and 620 nm were measured with an Envison instrument. HTRF rate=(665 nm/620 nm)*10^4. 8-10 concentrations were detected for each compound and IC50 was calculated by Graphpad software.

Sequence of interaction between PD-1 and PD-L1 (Q9NZQ7 19-238): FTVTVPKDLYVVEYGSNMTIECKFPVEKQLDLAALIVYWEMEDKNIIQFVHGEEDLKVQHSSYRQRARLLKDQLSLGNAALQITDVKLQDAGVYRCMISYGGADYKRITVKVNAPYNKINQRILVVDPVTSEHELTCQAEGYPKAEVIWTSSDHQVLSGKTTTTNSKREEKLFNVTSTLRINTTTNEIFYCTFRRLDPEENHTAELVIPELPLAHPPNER

| Structure (SMILES) | IC50 [µM] |
| --- | --- |
| C[C@H](O)[C@@H](NCc1ccc(OCc2cccc(-c3ccc4c(c3)OCCO4)c2Br)cc1OCc1cccc(C#N)c1)C(=O)O (stereo in doubt) [Example 19, N-(4-(2-bromo-3-(2,3-dihydrobenzo[b][1,4]dioxin-6-yl)benzyloxy)-2-(3-cyanobenzyloxy)benzyl) threonine] | 0.0181 |
| CS(=O)(=O)c1cccc(COc2cc(OCc3cccc(-c4ccccc4)c3Br)c(Cl)cc2CN[C@H](CO)C(=O)O)c1 (stereo in doubt) [Example 27, N-(4-(2-bromo-3-phenylbenzyloxy)-5-chloro-2-(3-methanesulfonylbenzyloxy)benzyl) serine] | ≤ 0.01 |
| N#Cc1cccc(COc2cc(OCc3cccc(-c4ccccc4)c3Br)ccc2CN2CCC[C@H]2C(=O)O)c1 [Example 4, N-(4-(2-bromo-3-phenylbenzyloxy)-2-(3-cyanobenzyloxy)benzyl) proline] | 0.0592 |
| N#Cc1cccc(COc2cc(OCc3cccc(-c4ccccc4)c3Br)ccc2CNCCO)c1 [Example 5, N-hydroxylethyl-4-(2-bromo-3-phenylbenzyloxy)-2-(3-cyanobenzyloxy) benzylamine] | 0.307 |
| C[C@H](NCc1ccc(OCc2cccc(-c3ccccc3)c2Br)cc1OCc1cccc(C#N)c1)C(=O)O [Example 6, N-(4-(2-bromo-3-phenylbenzyloxy)-2-(3-cyanobenzyloxy)benzyl) alanine] | 0.178 |
| CSCC[C@H](NCc1ccc(OCc2cccc(-c3ccccc3)c2Br)cc1OCc1cccc(C#N)c1)C(=O)O [Example 7, N-(4-(2-bromo-3-phenylbenzyloxy)-2-(3-cyanobenzyloxy)benzyl) methionine] | 4.59 |
| N#Cc1cccc(COc2cc(OCc3cccc(-c4ccccc4)c3Br)ccc2CNC2CCOCC2)c1 [Example 9, N-(tetrahydro-2H-pyran-4-yl)-4-(2-bromo-3-phenylbenzyloxy)-2-(3-cyanobenzyloxy) benzylamine] | 0.788 |
| COc1ccc(-c2cccc(COc3ccc(CNCCO)c(OCc4cccc(C#N)c4)c3)c2Br)cc1OC [Example 11, N-hydroxylethyl-4-(2-bromo-3-(3,4-dimethoxyphenyl)benzyloxy)-2-(3-cyanobenzyloxy) benzylamine] | 7.87 |
| COc1ccc(-c2cccc(COc3ccc(CN[C@@H](CO)C(=O)O)c(OCc4cccc(C#N)c4)c3)c2Br)cc1OC [Example 13, N-(4-(2-bromo-3-(3,4-dimethoxyphenyl)benzyloxy)-2-(3-cyanobenzyloxy)benzyl) serine] | 5.35 |
| COc1ccc(-c2cccc(COc3ccc(CN[C@@H](C)C(=O)O)c(OCc4cccc(C#N)c4)c3)c2Br)cc1OC [Example 17, N-(4-(2-bromo-3-(3,4-dimethoxyphenyl)benzyloxy)-2-(3-cyanobenzyloxy)benzyl) alanine] | 3.16 |
| N#Cc1cccc(COc2cc(OCc3cccc(-c4ccc5c(c4)OCCO5)c3Br)ccc2CN[C@@H](CO)C(=O)O)c1 [Example 18, N-(4-(2-bromo-3-(2,3-dihydrobenzo[b][1,4]dioxin-6-yl)benzyloxy)-2-(3-cyanobenzyloxy)benzyl) serine] | 0.0385 |
| N#Cc1cccc(COc2cc(OCc3cccc(-c4ccccc4)c3Br)c(Cl)cc2CN[C@@H](CO)C(=O)O)c1 [Example 20, N-(4-(2-bromo-3-phenylbenzyloxy)-5-chloro-2-(3-cyanobenzyloxy)benzyl) serine] | 0.00248 |

Second part, the compound after the results:

| IC50 [µM] | Structure (SMILES) |
| --- | --- |
| 0.134 | C[C@H](O)[C@@H](NCc1ccc(OCc2cccc(-c3ccccc3)c2Br)cc1OCc1cccc(C#N)c1)C(=O)O (stereo in doubt) [Example 8, N-(4-(2-bromo-3-phenylbenzyloxy)-2-(3-cyanobenzyloxy)benzyl) threonine] |
| 0.00316 | C[C@@H](NCc1cc(Cl)c(OCc2cccc(-c3ccccc3)c2Br)cc1OCc1cccc(C#N)c1)C(=O)O (stereo in doubt) [Example 25, N-(4-(2-bromo-3-phenylbenzyloxy)-5-chloro-2-(3-cyanobenzyloxy)benzyl)alanine] |
| ≤ 0.01 | C[C@H](O)[C@@H](NCc1cc(Cl)c(OCc2cccc(-c3ccccc3)c2Br)cc1OCc1cccc(C#N)c1)C(=O)O (stereo in doubt) [Example 26, N-(4-(2-bromo-3-phenylbenzyloxy)-5-chloro-2-(3-cyanobenzyloxy)benzyl) threonine] |
| ≤ 0.01 | CS(=O)(=O)c1cccc(COc2cc(OCc3cccc(-c4ccccc4)c3Br)c(Cl)cc2CN2CCCC[C@H]2C(=O)O)c1 (stereo in doubt) [Example 28, N-(4-(2-bromo-3-phenylbenzyloxy)-5-chloro-2-(3-methanesulfonylbenzyloxy)benzyl) pipecolinic acid] |
| 0.439 | CC(=O)NCCNCc1ccc(OCc2cccc(-c3ccccc3)c2Br)cc1OCc1cccc(C#N)c1 [Example 1, N-acetylaminoethyl-4-(2-bromo-3-phenylbenzyloxy)-2-(3-cyanobenzyloxy) benzylamine] |
| 0.0294 | N#Cc1cccc(COc2cc(OCc3cccc(-c4ccccc4)c3Br)ccc2CN[C@@H](CO)C(=O)O)c1 [Example 2, N-(4-(2-bromo-3-phenylbenzyloxy)-2-(3-cyanobenzyloxy)benzyl) serine] |
| 0.23 | CCN(CCO)Cc1ccc(OCc2cccc(-c3ccccc3)c2Br)cc1OCc1cccc(C#N)c1 [Example 3, N-Ethyl-N-hydroxylethyl-4-(2-bromo-3-phenylbenzyloxy)-2-(3-cyanobenzyloxy) benzylamine] |
| 6.65 | COc1ccc(-c2cccc(COc3ccc(CNCCNC(C)=O)c(OCc4cccc(C#N)c4)c3)c2Br)cc1OC [Example 14, N-acetylaminoethyl-4-(2-bromo-3-(3,4-dimethoxyphenyl)benzyloxy)-2-(3-cyanobenzyloxy) benzylamine] |
| 0.268 | CC(=O)NCCNCc1ccc(OCc2cccc(-c3ccc4c(c3)OCCO4)c2Br)cc1OCc1cccc(C#N)c1 [Example 16, N-acetylaminoethyl-4-(2-bromo-3-(2,3-dihydrobenzo[b][1,4]dioxin-6-yl)benzyloxy)-2-(3-cyanobenzyloxy) benzylamine] |
| 0.0675 | N#Cc1cccc(COc2cc(OCc3cccc(-c4ccc5c(c4)OCCO5)c3Br)c(Cl)cc2CN2CCCC[C@H]2C(=O)O)c1 [Example 24, (S)—N-(4-(2-bromo-3-(2,3-dihydrobenzo[b][1,4]dioxin-6-yl)benzyloxy)-5-chloro-2-(3-cyanobenzyloxy)benzyl) pipecolinic acid] |
